Measured values published in PubChem BioAssay (NCI).
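In this assay, cells in 96-well plates receive the compound at five concentrations for 48 hours. Endpoints are linearly interpolated between the surrounding concentrations. GI50 is the concentration that inhibits growth by half. The concentration for full growth arrest is given as TGI.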

Tests used:
Assay in all cases: NCI-60 cell line screen, 48 h
[1] = tested on: HCT-15 colon
[2] = tested on: SNB-19 CNS
[3] = tested on: 786-0 renal
[4] = tested on: MDA-MB-435
[5] = tested on: CAKI-1 renal
[6] = tested on: OVCAR-4 ovarian
[7] = tested on: SR leukemia
[8] = tested on: SF-539 CNS
[9] = tested on: NCI-H23 lung
[10] = tested on: CCRF-CEM leukemia

Compound | TGI [1] [µM] | TGI [2] [µM] | TGI [3] [µM] | TGI [4] [µM] | TGI [5] [µM] | TGI [6] [µM] | TGI [7] [µM] | TGI [8] [µM] | TGI [9] [µM] | TGI [10] [µM] | GI50 [1] [µM] | GI50 [2] [µM] | GI50 [3] [µM] | GI50 [4] [µM] | GI50 [5] [µM] | GI50 [6] [µM] | GI50 [7] [µM] | GI50 [8] [µM] | GI50 [9] [µM] | GI50 [10] [µM]
CC1CCC/C1=C(/I)C(=O)c1ccccc1 (centres undefined) | > 100 | > 100 | > 100 | 82 | 69.5 | > 100 | 78.1 | > 100 | > 100 | 75.5 | – | – | – | – | – | – | – | – | – | –
C=C1C(O)C2C(=C(CC)C13CC3)C(=O)C(C)(C)C2OC (centres undefined) | > 100 | > 100 | > 100 | > 100 | > 100 | > 100 | 68 | > 100 | > 100 | > 100 | 59 | > 100 | > 100 | > 100 | 76.5 | > 100 | 23.5 | 54.4 | 55.6 | 27.5
COc1ccc2c(c1)c(CC(=O)[Se]C)c(C)n2C(=O)c1ccc(Cl)cc1 | > 1 | > 0.752 | > 0.428 | > 0.503 | > 0.515 | > 1 | > 1 | > 0.526 | > 0.894 | > 1 | > 0.506 | > 0.421 | > 0.197 | > 0.231 | > 0.266 | > 0.443 | > 0.507 | > 0.238 | > 0.376 | > 0.391
O=C(/C=C/Sc1cc(C(F)(F)F)cc(C(F)(F)F)c1)c1ccc(Cl)cc1 | 11.6 | 25.4 | 9.84 | 15.3 | 9.43 | 30.7 | 5.32 | 30.9 | 31.3 | 1.74 | 3.04 | 12.8 | 2.66 | 4.22 | 3.57 | 13.5 | 2.02 | 14.4 | 17 | 0.271
N#C/C(=C\c1ccsc1)c1nc2ccccc2o1 | > 100 | > 100 | > 100 | > 100 | > 100 | > 100 | > 100 | > 100 | > 100 | 26.3 | > 100 | > 100 | 8.4 | > 100 | 22.3 | > 100 | > 100 | 38.7 | > 100 | –
COc1cccc(-c2c[nH]c3c(N/N=C/c4ccncc4)ncnc23)c1 | > 25 | > 25 | 18.6 | 6.9 | > 25 | 11.1 | > 24.1 | 6.81 | 11.8 | > 25 | 1.46 | 7.15 | 1.26 | 1.83 | 1.84 | 2.65 | 0.872 | 1.56 | 2.98 | 1.93
